Results from patent US20240147994A1, “ENHANCED YEASTICIDAL EFFICACY OF LACTIC ACID BASED ANTIMICROBIAL HANDWASH” (ECOLAB USA INC., priority 2022, published 2024).
“And” between values parts separate entries of the source, which are not always exact repeats. Identical values can stand only once.

System: Modified Vaccinia Virus, strain Ankara (MVA)
Format: cell-based
Details: reference inactivation (LVP-Method)

Question: Which results are given for `C=O` [0.7% (w/v) formaldehyde solution, formaldehyde]?
Answer: Reduction factor [lg] ± 95.0% confidence interval, 5 min: 1.70 lg and 1.87 lg and 1.53 lg; Reduction factor [lg] ± 95.0% confidence interval, 15 min: 3.14 lg and 2.96 lg and 2.73 lg; lg-TCID50/ml after 5 min: 4.93 lg-TCID50/ml and 4.88 lg-TCID50/ml and 4.85 lg-TCID50/ml; lg-TCID50/ml after 15 min: 3.49 lg-TCID50/ml and 3.79 lg-TCID50/ml and 3.65 lg-TCID50/ml
